Tests used:
[1] = test system: YUMC-S-P1, YUMC-P1-main, YUMC-P2-main cells; assay: Cell viability assay (MTT), anti-cancer drug-sensitive and main mass PTC cells; type: cell-based, human
Experimental: (§1) Cell viability was measured using the MTT (3-(4,5-Dimethylthiazol-2-yl)-2,5-Diphenyltetrazolium Bromide) assay, cells were seeded in 96-well plates at 7×10^3 cells per well and incubated overnight to achieve 80% confluency. The detailed protocol can be found in our previous article. Data were expressed as a percentage of the signal observed in vehicle-treated cells and are shown as the means±SEM of triplicate experiments.
(§2) To evaluate to the anti-cancer efficacy of CKP1 and 2, combinatorial strategies with sorafenib or lenvatinib, we carried out cell viability assays for anti-cancer drug-sensitive (YUMC-S-P1) and main mass or lymph node metastasis PTC (YUMC-P1-main or YUMC-P2-main or YUMC-P1-meta or YUMC-P2-meta) cells treated with sorafenib or levatinib each agent treated alone or with CKP1 and CKP2.

[2] = test system: metastatic PTC (YUMC-P1-meta or YUMC-P2-meta) cells; assay: Cell viability assay (MTT), metastatic PTC cells; type: cell-based, human
Experimental: as §1, §2

[3] = test system: YUMC-S-P1 cells xenograft; assay: Human PTC cell xenograft, anti cancer drug-sensitive PTC cells; type: in vivo, mice
Experimental: (§3) All experiments were approved by the Animal Experiment Committee of Yonsei University. YUMC-S-P1, YUMC-P1 and -P2-main or meta patient-derived PTC cells (4.4×10^6 cells/mouse) were cultured in vitro and then injected subcutaneously into the upper left flank region of female NOD/Shi-scid, IL-2Rγ KOJic (NOG) mice. After 15 days, tumor-bearing mice were grouped randomly (n=10 per group) and treated SERCA inhibitors, thapsigargin (25 mg/kg), candidate 33 (12 mg/kg) and 36 (12 mg/kg, p.o.) with 80 mg/kg sorafenib (p.o.) either alone or combination. Tumor size was measured every three day using calipers. Tumor volume was estimated using the following formula: L×S2/2 (L, longest diameter; S, shortest diameter). Animals were maintained under specific pathogen-free conditions. All experiments were approved by the Animal Experiment Committee of Yonsei University.
(§4) We developed mouse xenograft models using anti cancer drug-sensitive (YUMC-S-P1) and metastatic PTC (YUMC-P1 and -P2-meta) cells and evaluated the anticancer effect of monotherapy with sorafenib, lenvatinib or with SERCA inhibitors (thapsigargin, CKP1 and 2) as well as that of the combination therapy between sorafenib or lenvatinib and a SERCA inhibitor. […] No significant changes in resected tumor weight were found between any of the treatment groups (FIG. 5a to 5e).

[4] = test system: metastatic PTC cells (YUMC-P1 or -P2-meta) xenograft; assay: Human PTC cell xenograft, metastatic PTC cells; type: in vivo, mice; conditions: for tumor shrinkage: YUMC-P1 or -P2-meta xenograft; for tumor shrinkage (summary statement): xenograft tumor model developed using patient-derived antineoplastic-resistant cells
Experimental: as §3, §4

[5] = SERCA inhibitor alone treatment, whole PTC cells
[6] = in combination with sorafenib or lenvatinib, dose-dependent, YUMC-S-P1, YUMC-P1-main, YUMC-P2-main
[7] = combinatorial with sorafenib or lenvatinib treatment, dose-dependent, YUMC-P1-meta or YUMC-P2-meta
[8] = SERCA inhibitor with sorafenib or lenvatinib
[9] = combination of sorafenib or lenvatinib with SERCA inhibitor
[10] = sorafenib or lenvatinib without CKP1 and CKP2, dose-dependent, YUMC-S-P1, YUMC-P1-main, YUMC-P2-main
[11] = sorafenib or lenvatinib treatment alone, YUMC-P1-meta or YUMC-P2-meta
[12] = sorafenib or lenvatinib without SERCA inhibitors

SMILES | cell viability [1, 5] | cell viability [1, 6] | cell viability [2, 5] | cell viability [2, 7] | tumor size [3, 8] | tumor shrinkage [4, 9] | tumor shrinkage (summary statement) [4] | cell viability [1, 10] | cell viability [2, 11] | tumor size [3, 12] | tumor shrinkage ([4]; monotherapy)
Cc1cc(C=Nc2ccc(Cl)cc2)c2cccc(C)c2n1 [CKP1] | did not critical influence | significantly decreased | did not critical influence | remarkably restrained the viability | decreased significantly tumor size | substantial tumor shrinkage | significant tumor shrinkage | – | – | – | –
COc1cc2nccc(Oc3ccc(NC(=O)NC4CC4)c(Cl)c3)c2cc1C(N)=O [lenvatinib, reference compound] | – | – | – | – | – | – | – | significantly decreased | no remarkably influenced | decreased significantly tumor size | did not induce significant tumor shrinkage
Cc1cc(N=Cc2ccc(Cl)cc2)c2cccc(C)c2n1 [CKP2] | did not critical influence | significantly decreased | did not critical influence | remarkably restrained the viability | decreased significantly tumor size | substantial tumor shrinkage | significant tumor shrinkage | – | – | – | –
CNC(=O)c1cc(Oc2ccc(NC(=O)Nc3ccc(Cl)c(C(F)(F)F)c3)cc2)ccn1 [sorafenib, reference compound] | – | – | – | – | – | – | – | significantly decreased | no remarkably influenced | decreased significantly tumor size | did not induce significant tumor shrinkage
C/C=C(/C)C(=O)O[C@H]1C(C)=C2[C@H]([C@@H]1OC(=O)CCCCCCC)[C@@](C)(OC(C)=O)C[C@H](OC(=O)CCC)[C@@]1(O)[C@H]2OC(=O)[C@@]1(C)O [thapsigargin, reference compound] | did not critical influence | – | did not critical influence | remarkably restrained the viability | decreased significantly tumor size | substantial tumor shrinkage | – | – | – | – | –
